Source: patent publication US20260174674A1, “INCOMPLETE AUTOPHAGY INDUCTION FOR THE TREATMENT OF CANCER” (Northwestern University, priority 2022, published 2026)

Legend:
[1] = system: H2030Br lung cancer brain metastatic cells; experiment: Cell killing in lung cancer brain metastatic cells; format: cell-based; conditions: increasing amount of metixene
Description: (§1) FIGS. 4A-4C. Metixene induces cell death in primary brain tumors and other metastatic cancers. (FIG. 4A) CT2A glioma cells were treated with increasing amount of metixene. […] (FIG. 4B) H2030Br lung cancer brain metastatic cells were treated with increasing amount of metixene. […] (FIG. 4C) WM3734 melanoma brain metastatic cells were treated with increasing amount of metixene.
(§2) The inventors then checked whether NDRG1 is further involved in the apoptotic cell death induced by metixene. A cell viability assay was conducted to check the effect of NDRG1 KO versus vector control upon metixene dose-dependent treatment. […] Upon NDRG1 KO, autophagy is completed, and the caspase-mediated pathway of apoptosis is not activated. This mechanism applies to primary brain cancers, such as glioblastoma (FIG. 4A), and other metastatic cancers to the brain, such as lung cancer (FIG. 4B) and melanoma (FIG. 4C).

[2] = system: MDA-MB-231-Br brain metastases; experiment: Intracarotid model of multiple brain metastases; format: in vivo, nude mice; conditions: 1.0 mg/kg intraperitoneally three times per week, p=0.037
Description: (§3) All animal studies were completed per the National Institutes of Health guidelines on the care and use of laboratory animals for research purposes. The Institutional Committee on Animal Use at Northwestern University approved the protocols. Six- to eight-week-old athymic, immunodeficient (nu/nu) female mice were obtained from Charles River and maintained in a specific pathogen-free facility. For mammary gland injections, 1×10^6 HCC1954 cells were injected in the inguinal mammary fat pad of nude female mice. For the stereotactic intracranial injection, mice were placed in a stereotactic frame, and 5×10^5 BT-474Br cells were intracranially injected at a depth of 3 mm. For intracarotid artery injections, 1×10^6 MDA-MB-231Br cells were injected using a 31-gauge BD insulin syringe into the lumen of internal carotid artery.
The model was established through a systemic intracarotid injection of triple-negative MDA-MB-231-Br cells in nude mice. Ten days after injection of tumor cells, mice were randomly divided into two groups and treated intraperitoneally with: control (25% captisol, n=5) and metixene (1.0 mg/kg, n=6). The treatments were given three times per week.

LC3 in BT-474Br cells = experiment: LC3 puncta immunofluorescence; format: cell-based; conditions: 10 μM; P=0.015
Description: (§4) The efficacy of metixene in inducing autophagy was tested in two primary breast and brain metastatic cancer cell lines, using BT-474 and BT-474Br and MDA-MB-231 and MDA-MB-231Br, respectively.

CT2A glioma cells = experiment: Cell killing in glioma cells; format: cell-based; conditions: increasing amount of metixene
Description: as §1, §2

[3] = system: WM3734 melanoma brain metastatic cells; experiment: Cell killing in melanoma brain metastatic cells; format: cell-based; conditions: increasing amount of metixene
Description: as §1, §2

[4] = system: HCC1954 mammary fat pad tumors; experiment: Mammary fat pad tumor model; format: in vivo, nude mice
Description: as §3
The efficacy of metixene hydrochloride was evaluated using an in vivo model. HCC1954 cells were injected into the mammary fat pads of nude mice. After the formation and establishment of 5 mm breast tumors, mice were randomly divided into three groups whereby treatment was administered intraperitoneally: control (25% captisol); metixene (0.1 mg/kg); and metixene (1.0 mg/kg). The dosages were given three times a week. After 6 weeks, fat pad tumors were collected and analyzed (FIG. 2A).

[5] = system: caspase 3/7 activity in MDA-MB-231Br; experiment: Caspase 3/7 assay; format: cell-based
[6] = system: BT-474Br, a HER2-positive BCBM cell line; experiment: CNS drug screen, CellTiter-Glo cell viability; format: cell-based; conditions: 25 μM, 72 hours, Cell Titer Glo
Description: (§5) The Prestwick CNS Drug Library of 320 CNS compounds was purchased from Prestwick Chemical Libraries for screening. Cells were seeded at a density of 5000 cells/well in clear, flatbottomed, black-walled, 96-well plates. Each compound from the library was added at a final concentration of 25 μM per well 1 day after seeding of cells. After three days of treatment, cell viability was measured using CellTiter-Glo® Luminescent Cell Viability Assay (Promega) according to the manufacturer's instructions.
A blinded screen was conducted on a drug library comprising 320 structurally diverse drugs that are FDA approved, blood brain barrier (BBB) permeable, and known for their pharmacological effects on the CNS to identify potential hits for therapeutic intervention against brain metastases. Using BT-474Br, a HER2-positive BCBM cell line, the efficacy of the 320 compounds were screened at a standard concentration of 25 μM. After 72 hours of treatment, a cell viability assay was performed using Cell Titer Glo to determine the number of viable, metabolically active cells in culture. The screen yielded five different therapeutic agents that caused a vast reduction (>95%) in cell viability in vitro.

[7] = system: cleaved caspase-3 in BT-474Br; experiment: Cleaved caspase-3 protein expression; format: cell-based; conditions: 24 hours
Source text: (§6) Next, whether metixene induces apoptotic cell death was investigated. […] Immunofluorescence analysis of metixene-treated BT-474Br and MDA-MB-231Br cells confirmed increased cleaved caspase-3 expression.

[8] = system: cleaved caspase-3 in MDA-MB-231Br; experiment: Cleaved caspase-3 protein expression; format: cell-based; conditions: 24 hours
Source text: as §6

[9] = system: caspase 3/7 activity in BT-474Br; experiment: Caspase 3/7 assay; format: cell-based
NDRG1 in MDA-MB-231Br = experiment: NDRG1 and pNDRG1 expression; format: cell-based; conditions: dose-dependent treatment
Description: (§7) Upon further analysis of the RPPA data, the phosphorylation of N-Myc Downstream Regulated 1 (NDRG1) was noted to be relevant in four major pathways related to autophagy after 24 hours of metixene treatment. […] To confirm the role of NDRG1 in autophagy, NDRG1 knockout (KO) cells were generated using CRISPR Cas9 in MDA-MB-231Br cells. The cells were then treated with metixene in a dose-dependent manner and compared to cells transfected with a vector control.

[10] = system: BT-474 and BT-474Br and MDA-MB-231 and MDA-MB-231Br; experiment: Autophagy induction with increasing concentration (LC3, SQSTM1/p62); format: cell-based
Description: as §4

[11] = cited from earlier work
[12] = system: NDRG1 KO MDA-MB-231Br cells; experiment: NDRG1 CRISPR Cas9 knockout versus vector control; format: cell-based
Description: as §7, §2

[13] = system: LC3 in MDA-MB-231-Br cells; experiment: LC3 conversion and autophagy flux; format: cell-based; conditions: 10 μM, time course
Description: Next, MDA-MB-231-Br cells were treated with metixene for different durations to determine the mechanism of autophagic signaling in brain metastatic cells. […] Afterward, autophagy flux changes after ten minutes, one hour, and three hours of treatment were tested. LC3 II levels in control (untreated) cells, cells treated with chloroquine (25 μM), cells treated with metixene (10 μM), and cells treated with metixene and chloroquine were compared.

[14] = system: BT-474Br intracranial tumors; experiment: Stereotactic intracranial model of BCBM; format: in vivo, nude mice
Description: as §3
After showing its anti-tumor effect in vivo, whether metixene could improve survival in different preclinical models of brain metastases was tested. A stereotactic intracranial injection of HER2-positive BT474-Br cells was performed in nude mice. After 10 days of recovery and tumor growth, the mice were divided into two groups that were treated intraperitoneally: control (25% captisol, n=7); and metixene (1.0 mg/kg, n=8). The dosages were given three times per week.

BT-474Br = experiment: Cell viability assay; format: cell-based
Description: (§8) Following the determination of an appropriate range for treatment of BCBM cells, the anti-cancer activity of metixene was evaluated in the brain metastatic HER2-positive BT-474Br and the triple-negative MDA-MB-231Br cell lines, using increasing concentrations of the drug at different time points.

MDA-MB-231Br = experiment: Cell viability assay; format: cell-based
Description: as §8

HCC1954 = experiment: CNS drug screen, cell viability, trastuzumab-resistant line; format: cell-based; conditions: 25 μM
Description: as §5
HER2-positive breast cancer has the greatest risk for intracranial-specific metastases. When metastatic cancer cells colonize the brain, they develop resistance to systemic therapies, such as trastuzumab. For this reason, another blinded screen was conducted on a metastatic breast cancer cell line that is trastuzumab-resistant, HCC1954. At 25 μM, the screen yielded five hits that caused a nearly complete loss of cell viability. […] Next, the effect of metixene on different metastatic breast cancer cell lines was determined by measuring its IC50 in two HER2-positive cell lines (BT474 and HCC1954) and five triple-negative breast cancer cell lines (MDAMB-231-Br, HCC1806, HS578T, HCC3153, and SUM159) after 72 hours of treatment.

brain metastases = conditions: added to whole-brain radiation, cited from earlier work
α-synuclein = conditions: cited from earlier work
[15] = dose-dependent treatment, Western blot

CN1CCCC(CC2c3ccccc3Sc3ccccc32)C1 (stereo not drawn) [metixene]
concentration at which potent cell-killing effect begins [1]: 10 µM | median survival ([2]; control 44 days): 67 days | increase in survival in comparison to controls [2]: 52% | LC3 puncta accumulation (LC3 in BT-474Br cells): significant increase in the accumulation of puncta | concentration at which potent cell-killing effect begins (CT2A glioma cells): 5 µM | concentration at which potent cell-killing effect begins [3]: 10 µM | tumor weight ([4]; 0.1 mg/kg intraperitoneally three times a week, 6 weeks, P=0.0043): decreased significantly | percent of cleaved caspase-3-positive cells in tumor sections ([4]; 0.1 mg/kg, p=0.001): significant increase | tumor weight ([4]; 1.0 mg/kg intraperitoneally three times a week, 6 weeks, P=0.0004): decreased significantly | percent of cleaved caspase-3-positive cells in tumor sections ([4]; 1.0 mg/kg, p=0.0002): significant increase | tumor volume ([4]; 0.1 and 1.0 mg/kg intraperitoneally three times a week, 6 weeks, p<0.0001): decreased significantly | caspase 3/7 activity ([5]; 24 hours, 10 μM and 15 μM): significant increase in caspase 3/7 activity | caspase 3/7 activity ([5]; 48 hours, 15 μM): increased significantly | reduction in cell viability [6]: top hit in both screens | cleaved caspase-3 protein levels [7]: markedly increase | cleaved caspase-3 protein levels [8]: markedly increase | caspase 3/7 activity ([9]; 24 hours): significant increase in caspase 3/7 activity | caspase 3/7 activity ([9]; 48 hours, 15 μM): increased significantly | expression of NDRG1 and pNDRG1 (NDRG1 in MDA-MB-231Br): increased significantly in a dose-dependent manner | LC3 II levels ([10]; increasing concentration): increased as the concentration of metixene increased | ratio of LC3 II to I levels ([10]; increasing concentration): trended upwards with increasing concentration | SQSTM1/p62 levels ([10]; increasing concentration (FIG. 3F)): increased with increasing concentration | BBB permeability [11]: BBB permeable | apoptosis (caspase 3/7) in NDRG1 KO cells vs control ([12]; 10 μM (P=0.0078) and 15 μM (P<0.0001)): significantly reduced | viability of NDRG1 KO cells vs control cells ([12]; 10 μM (P=0.0271) and 20 μM (P<0.0001)): significantly more viable | LC3II levels in NDRG1 KO cells vs vector control [12, 15]: decreased significantly | p62 levels in NDRG1 KO cells vs vector control [12, 15]: significant decrease | conversion of LC3 I to LC3 II [13]: increase as early as ten minutes | median survival ([14]; 1.0 mg/kg intraperitoneally three times per week, control 52 days, p=0.0008): 64 days | luciferase signal in the brain ([14]; 1.0 mg/kg, after six weeks of treatment, vs controls, p=0.02): significant reduction | cell viability (BT-474Br; 24 hours): significant reduction in cell viability | cell viability (BT-474Br; 48 hours, 15 μM): significantly decreased | cell viability (MDA-MB-231Br; 24 hours): significant reduction in cell viability | cell viability (MDA-MB-231Br; 48 hours, 5, 10, and 15 μM): significantly decreased | loss of cell viability (HCC1954): top hit in both screens

CCN(CC)CCCC(C)Nc1ccnc2cc(Cl)ccc12 (stereo not drawn) [chloroquine]
toxicity (brain metastases; vs controls): no increase in toxicity | overall survival (brain metastases; controls 7.42 months, P=0.839): 10.2 months | BBB permeability [11]: low permeability of the BBB

C=CCNC1=C2C[C@@H](C)C[C@H](OC)[C@H](O)[C@@H](C)/C=C(\C)[C@H](OC(N)=O)[C@@H](OC)/C=C\C=C(/C)C(=O)NC(=CC1=O)C2=O [17-AAG]
reduction of α-synuclein in cells (α-synuclein): effective in reducing α-synuclein in cells
